Results on 21 compounds are retold here after patent US20230011869A1 (Hoffmann-La Roche Inc., priority 2018, published 2023).

The test system of this experiment is Acinetobacter baumannii ATCC17961. As to the kind of experiment: Antimicrobial susceptibility testing: 90% growth inhibitory concentration (IC90) determination, Iso-Sensitest broth. The note with it: Acinetobacter baumannii, ATCC17961, 16 h, read-out: ATCC17961 IC90. Format: cell-based. The method, then: Antimicrobial Susceptibility Testing:
90% Growth Inhibitory Concentration (IC90) Determination
The in vitro antimicrobial activity of the compounds was determined according to the following procedure:
The assay used a 10-points Iso-Sensitest broth medium to measure quantitatively the in vitro activity of the compounds against Acinetobacter baumannii ATCC17978 and Acinetobacter baumannii ATCC17961.
Stock compounds in DMSO were serially twofold diluted (e.g. range from 50 to 0.097 μM final concentration) in 384 wells microtiter plates and inoculated with 49 μl the bacterial suspension in Iso-Sensitest medium to have a final cell concentration of 5×10^(5) CFU/ml in a final volume/well of 50 ul/well. Microtiter plates were incubated at 35±2° C.
Bacterial cell growth was determined with the measurement of optical density at λ=600 nm each 20 minutes over a time course of 16 h. Growth inhibition was calculated during the logarithmic growth of the bacterial cells with determination of the concentration inhibiting 50% (IC50) and 90% (IC90) of the growth.
Table 1 provides the 90% growth inhibitory concentrations (IC90) in micromoles per liter of the compounds of present invention obtained against the strain Acinetobacter baumannii ATCC17978 and Acinetobacter baumannii ATCC17961.

Where [1] appears, read: 90% growth inhibitory concentration, Acinetobacter baumannii ATCC17961, Iso-Sensitest broth, OD 600 nm over 16 h.

Structures can show the parent of a compound that is named as a salt. Where two headings read alike, the source gives them in different places.

On to `Cc1cc(Nc2nccn3c(-c4ccc(OC(F)F)cc4)cnc23)ccc1C(=O)N1CCN(C(=O)N[C@@H]2CNC[C@H]2O)CC1` (racemic) [Example 170, 4-[4-[[3-[4-(difluoromethoxy)phenyl]imidazo[1,2-a]pyrazin-8-yl]amino]-2-methyl-benzoyl]-N-[rac-(3R,4R)-4-hydroxypyrrolidin-3-yl]piperazine-1-carboxamide hydrochloride], for which the concentration for an effect of 90% (IC90) under setting [1] stood at 35 nM.
Same read-out and setting: to `COc1ccc(-c2cnc3c(Nc4ccc(C(=O)N5CCN(C(=O)[C@H]6C[C@H](O)CN6)CC5)c(C)c4)nccn23)c(F)c1F` (racemic) [Example 228, [4-[[3-(2,3-difluoro-4-methoxy-phenyl)imidazo[1,2-a]pyrazin-8-yl]amino]-2-methyl-phenyl]-[4-[rac-(2R,4S)-4-hydroxy-pyrrolidine-2-carbonyl]piperazin-1-yl]methanone] belongs 104 nM.
Same read-out and setting: then `COc1ccc(-c2cnc3c(Nc4ccc(C(=O)NC5CCC(NC(=O)[C@H]6C[C@H](O)CN6)C5)c(C)c4)nccn23)c(F)c1F` (mixture of isomers) [Example 458, rac-(2R,4S)-N-[3-[[4-[[3-(2,3-difluoro-4-methoxyphenyl)imidazo[1,2-a]pyrazin-8-yl]amino]-2-methylbenzoyl]amino]cyclo-pentyl]-4-hydroxypyrrolidine-2-carboxamide], with 81 nM.
Regarding `Cc1cc(Nc2nccn3c(-c4ccc(OCC#N)c(F)c4Cl)cnc23)ccc1C(=O)N1CCN(C(=O)[C@@H]2CCNC[C@@H]2O)CC1` (relative stereo) [Example 223, 2-[3-chloro-2-fluoro-4-[8-[4-[4-[(3R,4R)-3-hydroxypiperidine-4-carbonyl]piperazine-1-carbonyl]-3-methyl-anilino]imidazo[1,2-a]pyrazin-3-yl]phenoxy] acetonitrile formate], the IC90 under setting [1] worked out at 47 nM.
Still for that read-out and setting: then `COc1ccc(-c2cnc3c(Nc4ccc(C(=O)N5CCN(C(=O)[C@]6(O)CNCC[C@H]6O)CC5)c(C)c4)nccn23)c(F)c1F` (relative stereo) [Example 236, rel-(4-(4-((3-(2,3-difluoro-4-methoxyphenyl)imidazo[1,2-a]pyrazin-8-yl)amino)-2-methylbenzoyl)piperazin-1-yl)((3R,4S)-3,4-dihydroxypiperidin-3-yl)methanone], with 82 nM; and `COc1ccc(-c2cnc3c(Nc4ccc(C(=O)N5CCN(C(=O)[C@]67CNCC[C@H]6OC(C)(C)O7)CC5)c(C)c4)nccn23)c(F)c1F` (stereo in doubt) [Example 577, rel-(4-(4-((3-(2,3-difluoro-4-methoxyphenyl)imidazo[1,2-a]pyrazin-8-yl)amino)-2-methylbenzoyl)piperazin-1-yl)((3aR,7aS)-2,2-dimethyltetrahydro-[1,3]dioxolo[4,5-c]pyridin-3a(4H)-yl)methanone], with 330 nM; and `COc1ccc(-c2cnc3c(Nc4ccc(C(=O)N5CCN(C(=O)[C@@]67CNCC[C@@H]6OC(C)(C)O7)CC5)c(C)c4)nccn23)c(F)c1F` (stereo in doubt) [Example 578, rel-(4-(4-((3-(2,3-difluoro-4-methoxyphenyl)imidazo[1,2-a]pyrazin-8-yl)amino)-2-methylbenzoyl)piperazin-1-yl)((3aR,7aS)-2,2-dimethyltetrahydro-[1,3]dioxolo[4,5-c]pyridin-3a(4H)-yl)methanone], with 649 nM.
`COc1cc(Nc2nccn3c(-c4ccc(OC)c(F)c4F)cnc23)ccc1C(=O)N1CCN(C(=O)[C@H]2C[C@H](O)CN2)CC1` (stereo in doubt) [Example 586, (4-(4-((3-(2,3-difluoro-4-methoxyphenyl)imidazo[1,2-a]pyrazin-8-yl)amino)-2-methoxybenzoyl)piperazin-1-yl)((2R,4S)-4-hydroxypyrrolidin-2-yl)methanone formate]: the IC90 turned out to be 312 nM.
`COc1ccc(-c2cnc3c(Nc4ccc(C(=O)N5CCC(CN)CC5)c(C)c4)nccn23)cc1` [Example 19, (4-(aminomethyl)piperidin-1-yl)(4-((3-(4-methoxyphenyl)imidazo[1,2-a]pyrazin-8-yl)amino)-2-methylphenyl)methanone hydrochloride]: the IC90 under setting [1] was determined as 82 nM.
On the same count and under the same terms, to `COc1ccc(-c2cnc3c(Nc4ccc(C(=O)N5CCN(C(=O)[C@@H]6CC(C)(C)CN6)CC5)c(C)c4)nccn23)c(F)c1F` [Example 76, (S)-(4-(4-((3-(2,3-difluoro-4-methoxyphenyl)imidazo[1,2-a]pyrazin-8-yl)amino)-2-methylbenzoyl)piperazin-1-yl)(4,4-dimethylpyrrolidin-2-yl)methanone hydrochloride] belongs 91 nM; to `COc1ccc(-c2cnc3c(Nc4ccc(C(=O)N5CCN(C(=O)[C@@H]6CCC(C)(C)N6)CC5)c(C)c4)nccn23)c(F)c1F` [Example 77, (S)-(4-(4-((3-(2,3-difluoro-4-methoxyphenyl)imidazol[1,2-a]pyrazin-8-yl)amino)-2-methylbenzoyl)piperazin-1-yl)(5,5-dimethylpyrrolidin-2-yl)methanone hydrochloride], 83 nM.
Turning to `COc1ccc(-c2cnc3c(Nc4ccc(C(=O)N5CCN(C(=O)[C@H]6NCC[C@H]6O)CC5)c(C)c4)nccn23)c(F)c1F` [Example 78, (4-(4-((3-(2,3-difluoro-4-methoxyphenyl)imidazo[1,2-a]pyrazin-8-yl)amino)-2-methylbenzoyl)piperazin-1-yl)((2S,3R)-3-hydroxypyrrolidin-2-yl)methanone hydrochloride], the IC90 came out at 87 nM.
In the case of `COc1ccc(-c2cnc3c(Nc4ccc(C(=O)N5CCN(C(=O)[C@@H]6NCC[C@@H]6O)CC5)c(C)c4)nccn23)c(F)c1F` [Example 79, [4-[[3-(2,3-difluoro-4-methoxyphenyl)imidazo[1,2-a]pyrazin-8-yl]amino]-2-methylphenyl]-[4-[(2R,3S)-3-hydroxypyrrolidine-2-carbonyl]piperazin-1-yl]methanone;hydrochloride], the IC90 under setting [1] came out at 167 nM.
Turning to `COc1ccc(-c2cnc3c(Nc4ccc(C(=O)N5CCN(C(=O)C6(C)CCCN6)CC5)c(C)c4)nccn23)c(F)c1F` (stereo not drawn) [Example 80, (4-(4-((3-(2,3-difluoro-4-methoxyphenyl)imidazo[1,2-a]pyrazin-8-yl)amino)-2-methylbenzoyl)piperazin-1-yl)(2-methylpyrrolidin-2-yl)methanone hydrochloride], the IC90 under setting [1] amounted to 81 nM.
Consider `COc1ccc(-c2cnc3c(Nc4ccc(C(=O)N5CCN(C(=O)[C@@H]6C[C@@H](F)CN6)CC5)c(C)c4)nccn23)c(F)c1F` [Example 81, (4-(4-((3-(2,3-difluoro-4-methoxyphenyl)imidazo[1,2-a]pyrazin-8-yl)amino)-2-methylbenzoyl)piperazin-1-yl)((2S,4R)-4-fluoropyrrolidin-2-yl)methanone hydrochloride], for which the IC90 under setting [1] amounted to 106 nM.
The same measure, in the same setting: then `COc1ccc(-c2cnc3c(Nc4ccc(C(=O)N5CCN(C(=O)[C@@H]6C[C@H](F)CN6)CC5)c(C)c4)nccn23)c(F)c1F` [Example 83, (4-(4-((3-(2,3-difluoro-4-methoxyphenyl)imidazo[1,2-a]pyrazin-8-yl)amino)-2-methylbenzoyl)piperazin-1-yl)((2S,4S)-4-fluoropyrrolidin-2-yl)methanone hydrochloride], with 85 nM.
For the compound `COC[C@@H]1CN[C@H](C(=O)N2CCN(C(=O)c3ccc(Nc4nccn5c(-c6ccc(OC)c(F)c6F)cnc45)cc3C)CC2)C1` [Example 84, (4-(4-((3-(2,3-difluoro-4-methoxyphenyl)imidazo[1,2-a]pyrazin-8-yl)amino)-2-methylbenzoyl)piperazin-1-yl)((2S,4S)-4-(methoxymethyl)pyrrolidin-2-yl)methanone hydrochloride], the concentration for an effect of 90% (IC90) is 76 nM.
Take `Cc1cc(Nc2nccn3c(-c4ccc(OCC#N)c(F)c4F)cnc23)ccc1C(=O)N1CCC(C(=O)N2CC3(CNC3)C2)CC1` [Example 87, 2-(4-(8-((4-(4-(2,6-diazaspiro[3.3]heptane-2-carbonyl)piperidine-1-carbonyl)-3-methylphenyl)amino)imidazo[1,2-a]pyrazin-3-yl)-2,3-difluorophenoxy)acetonitrile]: under setting [1], the IC90 was 166 nM.
Same read-out and setting: then `COc1ccc(-c2cnc3c(Nc4ccc(C(=O)N5CCC(C(=O)NCC(O)CNC(N)=O)CC5)c(C)c4)nccn23)c(F)c1F` (stereo not drawn) [Example 88, 1-(4-((3-(2,3-difluoro-4-methoxyphenyl)imidazo[1,2-a]pyrazin-8-yl)amino)-2-methylbenzoyl)-N-(2-hydroxy-3-ureidopropyl)piperidine-4-carboxamide], with 195 nM; and `COc1ccc(-c2cnc3c(Nc4ccc(C(=O)N5CCC(C(=O)NCC(O)CN(C)C)CC5)c(C)c4)nccn23)c(F)c1F` (stereo not drawn) [Example 89, 1-(4-((3-(2,3-difluoro-4-methoxyphenyl)imidazo[1,2-a]pyrazin-8-yl)amino)-2-methylbenzoyl)-N-(3-(dimethylamino)-2-hydroxypropyl)piperidine-4-carboxamide], with 72 nM.
Still for that read-out and setting: to `COc1ccc(-c2cnc3c(Nc4ccc(C(=O)N5CCC(C(=O)NCC(O)CN6CCNCC6)CC5)c(C)c4)nccn23)c(F)c1F` (stereo not drawn) [Example 90, 1-(4-((3-(2,3-difluoro-4-methoxyphenyl)imidazo[1,2-a]pyrazin-8-yl)amino)-2-methylbenzoyl)-N-(2-hydroxy-3-(piperazin-1-yl)propyl)piperidine-4-carboxamide hydrochloride] belongs 116 nM.
